Reference: patent publication US20110288134A1, “COMPOSITION AND METHOD FOR TREATING FIBROSIS” (Pacific Therapeutics Ltd., priority 2008, published 2011)
Read-outs that look alike come from different tables or passages of the source.

Tests used:
[1] = system: TGF-β1 induced ECM accumulation in HFL1 human lung fibroblast cells; experiment: TGF-β1 induced monolayer extracellular matrix (ECM) accumulation assay (Sirius Red collagen) in fibronectin-coated plates; type: cell-based; settings: for inhibition at 300 µM: compound alone at 300 μM (FIG. 1)
From the text: The composition comprising tranilast and NAC or composition containing pirfenidone and NAC was investigated for their antifibrotic activity by employing in vitro collagen synthesis assay: the TGF-β1 induced monolayer extracellular matrix (ECM) accumulation assay in fibronectin-coated plates.
Method Human lung fibroblast cell line, HFL1, was purchased from American Type Culture Collection. Cells were maintained in FK12 medium supplemented with 10% FBS and antibiotics. Cells were trypsinized and seeded into 96-well fibronectin-coated plate as 5×10^4cells/well and cultured overnight to achieve 60-80% confluence. After a washing with PBS and serum-free medium, fresh medium supplemented with 40 pM of TGF-β1 was added in each test well. Different concentrations of tranilast, pirfenidone, NAC and their combinations were also added to some test wells. The plates were left at 37° C. in a CO2 incubator for 72 h. After removing medium cells were fixed to the plate with 0.5% glutaraldehyde for 30 minutes at room temperature. Cells were washed and treated with 0.5M acetic acid for 30 minutes. After washing cells with distilled water 250 µl of Sirius Red was added for 2 hours. Dye was removed and cells were washed with distilled water. Sirius Red was eluted with 200 ul 0.1 N sodium hydroxide, and the optical density at 540 nm was determined using a Molecular Dynamics spectrophotometer.

[2] = cited from earlier work
[3] = doses of up to 600 mg/day for at least 3 months, many years of clinical use; cited from earlier work
[4] = HFL1 cells, 40 pM TGF-β1, 72 h, compound alone at 10 μM (FIG. 1)
[5] = Homo sapiens, HFL1 cells, 40 pM TGF-β1, 72 h, read-out: inhibition of TGF-β1 mediated ECM (collagen) accumulation
[6] = combination screen plate (FIG. 2A/3A), HFL1 cells, compound alone at 300 μM

Cc1ccc(=O)n(-c2ccccc2)c1 [pirfenidone, 5-methyl-L-phenyl-2-(1H)-pyridone]
inhibition of TGF-β1 mediated ECM (collagen) accumulation [1, 4]: not effective | inhibition of TGF-β1 mediated ECM (collagen) accumulation ([1]; HFL1 cells, 40 pM TGF-β1, 72 h, compound alone at 100 μM (FIG. 1)): not effective | inhibition at 1000 µM ([1]; Homo sapiens, HFL1, screen plate FIG. 3A, compound alone at 1000 μM, read-out: anti-fibrosis activity (inhibition of TGF-β1 induced collagen accumulation)): 100% | inhibition at 300 µM [1, 5]: 22 ± 7% | inhibition at 500 µM ([1]; Homo sapiens, HFL1 cells, 40 pM TGF-β1, 72 h, compound alone at 500 μM (FIG. 1), read-out: inhibition of TGF-β1 mediated ECM (collagen) accumulation): 33 ± 8% | inhibition at 1000 µM ([1]; Homo sapiens, HFL1 cells, 40 pM TGF-β1, 72 h, compound alone at 1000 μM (FIG. 1), read-out: inhibition of TGF-β1 mediated ECM (collagen) accumulation): ~100% | suppression of TGF-β1 mediated collagen accumulation [1, 6]: 18% | plasma concentration ([2]; usual therapeutic dose of 1200 mg/day (Shi, Wu et al. 2007)): 100 to 1000 µM

CC(=O)N[C@@H](CS)C(=O)O [NAC, N-acetyl-cysteine]
inhibition of TGF-β1 mediated ECM accumulation ([1]; HFL1 cells, 40 pM TGF-β1, 72 h, alone at 0.1 mM (FIG. 1C)): not effective | inhibition of TGF-β1 mediated ECM accumulation ([1]; HFL1 cells, 40 pM TGF-β1, 72 h, alone at 0.5 mM (FIG. 1C)): not effective | inhibition of TGF-β1 mediated ECM accumulation ([1]; HFL1 cells, 40 pM TGF-β1, 72 h, alone at 1 mM (FIG. 1C)): not effective | suppression of TGF-β1 mediated ECM accumulation ([1]; HFL1 cells, 40 pM TGF-β1, 72 h, alone at 2 mM (FIG. 1C)): 32±14% | suppression of TGF-β1 mediated ECM accumulation ([1]; HFL1 cells, 40 pM TGF-β1, 72 h, alone at 5 mM (FIG. 1C)): 45±17% | suppression of TGF-β1 mediated ECM accumulation ([1]; HFL1 cells, 40 pM TGF-β1, 72 h, alone at 10 mM (FIG. 1C)): 70.5±18% | inhibition at 20000 µM ([1]; Homo sapiens, HFL1 cells, 40 pM TGF-β1, 72 h, alone at 20 mM (FIG. 1C), read-out: inhibition of TGF-β1 mediated ECM accumulation): 100% | suppression of TGF-β1 mediated collagen accumulation ([1]; screen plate FIG. 2A, compound alone at 2 mM): 25%

COc1ccc(/C=C/C(=O)Nc2ccccc2C(=O)O)cc1OC [tranilast, n-[3,4-dimethoxycinnamoyl] anthranilic acid]
shift in the potency of tranilast ([1]; 50 μM tranilast with 2 mM NAC (88%) versus tranilast alone (11%)): 8 fold | inhibition of TGF-β1 mediated ECM (collagen) accumulation [1, 4]: no significant inhibition | inhibition of TGF-β1 mediated ECM (collagen) accumulation ([1]; HFL1 cells, 40 pM TGF-β1, 72 h, compound alone at 25 μM (FIG. 1)): no significant inhibition | inhibition of TGF-β1 mediated ECM (collagen) accumulation ([1]; HFL1 cells, 40 pM TGF-β1, 72 h, compound alone at 50 μM (FIG. 1)): no significant inhibition | inhibition at 100 µM ([1]; Homo sapiens, HFL1 cells, 40 pM TGF-β1, 72 h, compound alone at 100 μM (FIG. 1), read-out: inhibition of TGF-β1 mediated ECM (collagen) accumulation): 34 ± 11% | inhibition at 300 µM [1, 5]: 100% | suppression of TGF-β1 mediated collagen accumulation [1, 6]: 100% | suppression of TGF-β1 mediated collagen accumulation ([1]; screen plate FIG. 2A, compound alone at 50 μM): 11% | plasma concentration ([2]; after oral administration of the usual therapeutic dose of 600 mg/day (Kusama et al. 1999)): 30 to 300 µM | clinical safety and tolerability [3]: safe and well tolerated
